Measurements published in patent publication US4767718A, “Fluorescent opioid reagents and methods of use thereof in the detection of opioid receptors” (Southern Illinois University Foundation, priority 1984, dated 1988).
Entries after “also recorded” stand apart in the source; their conditions may differ. Read-outs that look alike come from different tables or passages of the source.

What was measured:
[1] = system: guinea pig ileum longitudinal muscle; test: electrically stimulated guinea pig ileum longitudinal muscle preparation; conditions: for persistence of antagonist effect on washing of ileum: after washing
Method: 6-FN was tested for activity on an electrically stimulated guinea pig ileum longitudinal muscle preparation. In this test, a specimen of guinea pig ileum was stretched between two wires in a nutrient solution (2.5 mil.) and stimulated supramaximally at 0.1 Hz. In the absence of opioid agonists and antagonists electrical stimulation of the muscle results in contraction.

[2] = fluorescence and absorption properties; assay type: physicochemical; conditions: for emission maximum / excitation maximum: pH 7 phosphate buffer, 10^-6 M solution
Method: The container was wrapped in aluminium foil. Thereafter, portions of ethyl alcohol and water were added to the reaction mixture.

[3] = biological target: T1, opioid receptor (rat brain synaptosomal plasma membranes) (Rattus norvegicus, UniProt P33535); test: displacement of ^3H-dihydromorphine (^3H-DHM) from rat brain synaptosomal plasma membranes; assay type: binding; conditions: for Hill coefficient: ^3H-DHM displacement; for binding activity for use in detection and quantification of receptor sites: synaptosomal membranes, in words
T1 construct: from rat brain synaptosomal plasma membranes; from tissue; host or cells: rat brain synaptosomal plasma membranes
T1 sequence (P33535 whole entry): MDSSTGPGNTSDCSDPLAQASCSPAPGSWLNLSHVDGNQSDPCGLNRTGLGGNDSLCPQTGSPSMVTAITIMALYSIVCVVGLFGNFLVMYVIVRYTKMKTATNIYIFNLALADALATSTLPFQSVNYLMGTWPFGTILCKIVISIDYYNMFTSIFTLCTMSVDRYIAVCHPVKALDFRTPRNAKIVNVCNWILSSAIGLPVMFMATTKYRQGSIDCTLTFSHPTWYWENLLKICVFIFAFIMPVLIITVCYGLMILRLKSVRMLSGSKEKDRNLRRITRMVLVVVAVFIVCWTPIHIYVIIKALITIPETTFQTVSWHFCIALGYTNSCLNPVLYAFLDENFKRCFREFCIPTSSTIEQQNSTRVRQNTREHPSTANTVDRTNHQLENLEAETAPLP

[4] = hygroscopicity of sample submitted for elemental analysis; assay type: physicochemical
[5] = biological target: T2, opioid receptor sites, ^3H-DHM indicator ligand (Rattus norvegicus, UniProt P33535); test: site selectivity analysis (Terenius and Wahlstrom), displacement of labeled ^3H-DHM in presence of cold DALE; assay type: binding
T2 construct: from rat brain synaptosomal plasma membranes; from tissue; host or cells: rat brain synaptosomal plasma membranes (inferred from the sister test; b86 says only 'a substrate')
T2 sequence (P33535 whole entry): as above
Excerpt: (§1) In FIG. 1 it will be noted that compounds which displace the two indicator ligands differently provide a curve which is convex towards the axis of the labeled indicator ligand which is less favorably displaced.

[6] = biological target: T3, opioid receptor sites, ^3H-DALE indicator ligand (Rattus norvegicus, UniProt P33533); test: site selectivity analysis (Terenius and Wahlstrom), displacement of labeled ^3H-DALE in presence of cold DHM; assay type: binding
T3 construct: from rat brain synaptosomal plasma membranes; from tissue; host or cells: rat brain synaptosomal plasma membranes (inferred from the sister test; b86 says only 'a substrate')
T3 sequence (P33533 whole entry): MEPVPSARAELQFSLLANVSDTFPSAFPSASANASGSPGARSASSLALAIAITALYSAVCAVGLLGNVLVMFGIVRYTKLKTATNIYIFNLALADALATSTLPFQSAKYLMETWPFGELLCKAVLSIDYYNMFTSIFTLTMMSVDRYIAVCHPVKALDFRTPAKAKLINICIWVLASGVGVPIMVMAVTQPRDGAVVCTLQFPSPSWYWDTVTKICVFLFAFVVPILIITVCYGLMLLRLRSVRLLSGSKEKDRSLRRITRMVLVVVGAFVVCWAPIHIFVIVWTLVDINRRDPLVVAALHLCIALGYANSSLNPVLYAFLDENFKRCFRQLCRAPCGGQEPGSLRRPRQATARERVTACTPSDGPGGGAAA
Excerpt: as §1

[7] = determined graphically, rat brain synaptosomal plasma membranes

Which results are given for `C=CCN1CC[C@]23c4c5ccc(O)c4O[C@H]2C(=O)CC[C@@]3(O)[C@H]1C5` [naloxone, reference compound]?
reversal of 6-FN partial agonist activity by naloxone ([1]; 10^-7 M naloxone versus 10^-6 M 6-FN): reversible; antagonist effect of naloxone with respect to 6-FN ([1]; FIG. 2 legend): antagonist effect; persistence of antagonist effect on washing of ileum [1]: similar

Which results are given for `O=C1OC2(c3ccc(O)cc3Oc3cc(O)ccc32)c2ccccc21` [free fluorescein, fluorescein, reference compound]?
fluorescence polarization [2]: 0.022; emission maximum [2]: 510-511 nm; excitation maximum [2]: 493 nm

With `O=C1OC2(c3ccc(O)cc3Oc3cc(O)ccc32)c2ccc(NC(=S)NN=C3CC[C@@]4(O)[C@H]5Cc6ccc(O)c7c6[C@@]4(CCN5CC4CC4)[C@H]3O7)cc21` [6-FNX, 1-(N)-fluoresceinyl naltrexone thiosemicarbazone] as the compound, how does the IC50 [3] read?
Its IC50 is 0.005 µM.

And the Hill coefficient [3]?
The Hill coefficient was 0.675.

And the “binding activity for use in detection and quantification of receptor sites” value (from here on “binding activity for use”) [3]?
Its value is “sufficient binding activity”.

For `C=CCN1CC[C@]23c4c5ccc(O)c4O[C@H]2C(=NNC(=S)Nc2ccc4c(c2)C(=O)OC42c4ccc(N(C)C)cc4Oc4cc(N(C)C)ccc42)CC[C@@]3(O)[C@H]1C5` [6-RN, 1-(N)-tetramethylrhodaminyl-B-naloxone Thiosemicarbazone], which Hill coefficient [3] is on record?
The Hill coefficient was 1.09.

And the “binding activity for use” value [3]?
The value was “sufficient binding activity”.

Which “agonist effect, inhibition of contraction of ileum” value ([1]; normorphine 25 microliters, 10^-7 M) does the source give for `Oc1ccc2c3c1O[C@H]1[C@@H](O)C=C[C@H]4[C@@H](C2)NCC[C@@]341` [normorphine, reference compound] here?
The value was “agonist effect; also recorded: substantially inhibited contraction of the muscle”.

Which Hill coefficient [3] does the source give for `CN1CC[C@]23c4c5ccc(O)c4O[C@H]2C(=NNC(=S)Nc2ccc4c(c2)C(=O)OC42c4ccc(O)cc4Oc4cc(O)ccc42)CC[C@@]3(O)[C@H]1C5` [6-FO, 1-(N)-Fluoresceinyl Oxymorphone thiosemicarbazone] here?
Its Hill coefficient is 0.989.

What about the IC50 [3, 7] of the same compound?
The IC50 was 0.02 µM.

What about the “binding activity for use” value [3] of the same compound?
Its value is “sufficient binding activity”.

What about the hygroscopicity [4] of the same compound?
Its hygroscopicity is “very hygroscopic”.

With `C=CCN1CC[C@]23c4c5ccc(O)c4O[C@H]2C(=NNC(=S)Nc2ccc4c(c2)C(=O)OC42c4ccc(O)cc4Oc4cc(O)ccc42)CC[C@@]3(O)[C@H]1C5` [6-FN, 1-(N)-Fluoresceinyl Naloxone Thiosemicarbazone] as the compound, how does the Hill coefficient [3] read?
The Hill coefficient was 0.671.

And the IC50 [3, 7]?
Its IC50 is 0.02 µM.

And the “binding activity for use” value [3]?
The value was “sufficient binding activity”.

And the IC50 [5]?
The IC50 was 0.012 µM.

And the “site selectivity compared with naloxone (FIG. 1)” value ([5]; percent bound DALE* versus percent bound DHM*, in words)?
Its value is “show clearly the difference between 6-FN and naloxone with respect to site selectivity”.

What about the IC50 [6] of the same compound?
The IC50 was 0.017 µM.

And the “agonist activity of 6-FN” value ([1]; 10^-6 M 6-FN, FIG. 2)?
The value was “slight agonist effect; also recorded: partial agonist activity”.

What about the “persistence of antagonist effect on washing of ileum” value [1] of the same compound?
Its value is “did not readily eliminate the antagonist effect”.

What about the “antagonist effect with respect to normorphine” value ([1]; final 6-FN concentration 10^-7 M, prior to normorphine) of the same compound?
The value was “antagonist effect; also recorded: significantly inhibited the agonist effect of normorphine”.

And the “antagonist effect compared with inhibiting effect of naloxone” value ([1]; inhibition of normorphine agonist effect)?
Its value is “ten times less effective”.

What about the fluorescence polarization [2] of the same compound?
The fluorescence polarization was 0.038.

And the absorption maximum ([2]; 10^-5 M solution, phosphate buffer)?
Its absorption maximum is 493 nm.

And the “absorbance A at absorption maximum” value ([2]; 10^-5 M solution, phosphate buffer, 493 nm)?
The value was 0.410.

What about the “quantum yield compared to free fluorescein” value ([2]; 10^-9 M) of the same compound?
Its value is “about 67%”.

What about the emission maximum [2] of the same compound?
The emission maximum was 513 nm.

What about the excitation maximum [2] of the same compound?
Its excitation maximum is 493 nm.
